Assay results as given in PubChem BioAssay (NCI).
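96-well plates; 48 h exposure; 5 concentrations. Endpoints by linear interpolation between flanking doses. Not reached: highest tested concentration assigned. Definition used: TGI = concentration required for complete inhibition of growth.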

Tests used:
Test in all cases: DTP human tumour cell line panel, 48 h
[1] = tested on: 786-0 renal
[2] = tested on: A498 renal
[3] = tested on: A549 NSCLC
[4] = tested on: ACHN renal
[5] = tested on: BT-549 breast
[6] = tested on: CAKI-1 renal
[7] = tested on: COLO 205 colon
[8] = tested on: DU-145 prostate
[9] = tested on: EKVX NSCLC
[10] = tested on: HCC-2998 colon
[11] = tested on: HCT-116 colon
[12] = tested on: HCT-15 colon
[13] = tested on: HOP-62 NSCLC
[14] = tested on: HOP-92 NSCLC
[15] = tested on: HS 578T breast
[16] = tested on: HT29 colon
[17] = tested on: IGROV1 ovarian
[18] = tested on: K-562 leukemia
[19] = tested on: KM12 colon
[20] = tested on: LOX IMVI melanoma
[21] = tested on: M14 melanoma
[22] = tested on: MALME-3M melanoma
[23] = tested on: MCF7 breast
[24] = tested on: MDA-MB-231 breast
[25] = tested on: MDA-MB-435
[26] = tested on: MDA-N
[27] = tested on: MOLT-4 leukemia
[28] = tested on: NCI-H23 lung
[29] = tested on: NCI-H460 lung
[30] = tested on: NCI-H522 lung
[31] = tested on: NCI/ADR-RES ovarian
[32] = tested on: OVCAR-3 ovarian
[33] = tested on: OVCAR-4 ovarian
[34] = tested on: OVCAR-5 ovarian
[35] = tested on: OVCAR-8 ovarian
[36] = tested on: PC-3 prostate
[37] = tested on: RPMI-8226 leukemia
[38] = tested on: RXF 393 renal
[39] = tested on: SF-268 CNS
[40] = tested on: SF-295 CNS
[41] = tested on: SF-539 CNS
[42] = tested on: SK-MEL-2 melanoma
[43] = tested on: SK-MEL-28 melanoma
[44] = tested on: SK-MEL-5 melanoma
[45] = tested on: SK-OV-3 ovarian
[46] = tested on: SN12C renal
[47] = tested on: SNB-19 CNS
[48] = tested on: SNB-75 CNS
[49] = tested on: SR leukemia
[50] = tested on: SW-620 colon
[51] = tested on: T-47D breast
[52] = tested on: TK-10 renal
[53] = tested on: U251 CNS
[54] = tested on: UACC-257 melanoma
[55] = tested on: UACC-62 melanoma
[56] = tested on: UO-31 renal
[57] = tested on: CCRF-CEM leukemia
[58] = tested on: HL-60(TB) leukemia
[59] = tested on: NCI-H226 lung

Measured: TGI

CC(C)Cn1cnc2c(SCc3ccc(Cl)cc3Cl)nc(N)nc21
47.8 µM: [23]
93.3 µM: [35]
24.6 µM: [7]
25.8 µM: [49]
36.5 µM: [41]
35.4 µM: [29]
38.3 µM: [20]
37.4 µM: [10]
74.6 µM: [54]
49.5 µM: [2]
22.8 µM: [44]
74.8 µM: [37]
76.5 µM: [4]
71.6 µM: [22]
26.9 µM: [27]
69.9 µM: [14]
37 µM: [30]
not listed: [57] | [58] | [59]
> 100 µM: all other assays above

COc1ccc(-c2cc3c(c4cc(OC)ccc24)C(=O)OC3=O)cc1
not listed: [2] | [41]
> 100 µM: all other assays above
